{
  "source": "ChEMBL document CHEMBL5154836",
  "about": "“4,5-Dihydroxypyrimidine Methyl Carboxylates, Carboxylic Acids, and Carboxamides as Inhibitors of Human Cytomegalovirus pUL89 Endonuclease” (J Med Chem, 2022)",
  "key": {"[1]": {"molecular_target": "T1, Tripartite terminase subunit 3 (Human betaherpesvirus 5, UniProt P16732)", "T1 sequence (P16732 whole entry)": "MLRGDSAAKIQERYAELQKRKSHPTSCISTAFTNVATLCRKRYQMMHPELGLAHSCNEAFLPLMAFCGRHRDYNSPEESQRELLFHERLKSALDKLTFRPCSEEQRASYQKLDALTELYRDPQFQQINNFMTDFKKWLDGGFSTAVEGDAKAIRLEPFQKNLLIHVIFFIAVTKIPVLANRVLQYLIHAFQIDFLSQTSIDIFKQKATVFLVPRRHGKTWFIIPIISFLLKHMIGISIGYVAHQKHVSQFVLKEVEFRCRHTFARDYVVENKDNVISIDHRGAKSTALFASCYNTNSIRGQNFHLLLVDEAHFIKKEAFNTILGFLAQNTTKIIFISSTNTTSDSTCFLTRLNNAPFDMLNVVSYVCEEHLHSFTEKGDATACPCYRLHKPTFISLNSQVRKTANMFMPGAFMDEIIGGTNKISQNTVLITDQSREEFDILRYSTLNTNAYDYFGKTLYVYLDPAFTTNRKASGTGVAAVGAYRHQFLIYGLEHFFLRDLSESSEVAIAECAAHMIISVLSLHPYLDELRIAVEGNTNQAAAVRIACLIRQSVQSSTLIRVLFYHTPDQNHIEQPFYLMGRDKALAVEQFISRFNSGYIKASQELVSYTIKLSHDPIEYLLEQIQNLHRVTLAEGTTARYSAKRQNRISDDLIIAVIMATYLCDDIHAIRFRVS"}, "HFF": {"test_system": "HFF", "experiment": "Cytotoxicity against HFF cells assessed as cell viability incubated for 168 hrs by MTS-based Cell Titer assay", "format": "toxicity", "conditions": "human"}, "[2]": {"experiment": "Aqueous solubility of the compound in DPBS at pH 7.2 incubated for 72 hrs by LC-MS/MS analysis", "format": "physicochemical"}, "[3]": {"experiment": "Stability of compound in human plasma as compound remaining measured for 6 hrs by LC-MS/MS analysis", "format": "ADME, cell-free", "conditions": "read-out: Stability"}, "[4]": {"experiment": "Stability of compound in CD-1 mouse plasma as compound remaining measured for 6 hrs by LC-MS/MS analysis", "format": "ADME, cell-free", "conditions": "read-out: Stability"}, "[5]": {"conditions": "human, plasma, 24 h"}, "[6]": {"conditions": "mouse, plasma, 24 h"}, "[7]": {"conditions": "human, microsomes, 1 h", "description": "Stability in human liver microsomes assessed as half life measured upto 60 mins in presence of NADPH by LC-MS/MS analysis"}, "[8]": {"conditions": "mouse, microsomes, 1 h", "description": "Stability in mouse liver microsomes assessed as half life measured upto 60 mins in presence of NADPH by LC-MS/MS analysis"}, "[9]": {"experiment": "Apparent permeability coefficient of the compound incubated for 5 hrs by LC-MS/MS analysis based PAMPA method", "format": "ADME"}},
  "data": [
    {"compound": "O=C(O)c1nc(-c2ccsc2)nc(O)c1O", "values": [
      {"measurement": "IC50", "setting": "[1]", "result": 2700, "unit": "nM"}
    ]},
    {"compound": "O=C(O)c1nc(Cc2ccc(F)cc2)[nH]c(=O)c1O", "values": [
      {"measurement": "IC50", "setting": "[1]", "result": 740, "unit": "nM"}
    ]},
    {"compound": "O=C(O)c1nc(-c2cccs2)nc(O)c1O", "values": [
      {"measurement": "CC50", "setting": "HFF", "result": "> 100000", "unit": "nM"},
      {"measurement": "solubility thermodynamic at 72 h", "setting": "[2]", "result": 1480, "unit": "µM"},
      {"measurement": "remaining at 6 h", "setting": "[3]", "result": "> 94", "unit": "%"},
      {"measurement": "remaining at 6 h", "setting": "[4]", "result": "> 94", "unit": "%"},
      {"measurement": "t1/2", "setting": "[5]", "result": "> 24", "unit": "h"},
      {"measurement": "t1/2", "setting": "[6]", "result": "> 24", "unit": "h"},
      {"measurement": "t1/2", "setting": "[7]", "result": "> 120", "unit": "h"},
      {"measurement": "t1/2", "setting": "[8]", "result": "> 120", "unit": "h"}
    ]},
    {"compound": "COC(=O)c1nc(-c2cccs2)nc(O)c1O", "values": [
      {"measurement": "permeability", "setting": "[9]", "result": "0.9 10^-6 cm/s"},
      {"measurement": "IC50", "setting": "[1]", "result": 880, "unit": "nM"}
    ]},
    {"compound": "O=C(NCc1ccc(F)cc1)c1nc(-c2cccs2)nc(O)c1O", "values": [
      {"measurement": "IC50", "setting": "[1]", "result": 700, "unit": "nM"}
    ]},
    {"compound": "O=C(NCc1ccc(Cl)cc1)c1nc(-c2cccs2)nc(O)c1O", "values": [
      {"measurement": "IC50", "setting": "[1]", "result": 1300, "unit": "nM"}
    ]},
    {"compound": "Cc1ccc(CNC(=O)c2nc(-c3cccs3)nc(O)c2O)cc1", "values": [
      {"measurement": "IC50", "setting": "[1]", "result": 1900, "unit": "nM"}
    ]},
    {"compound": "COC(=O)c1nc(-c2ccccc2)[nH]c(=O)c1O", "values": [
      {"measurement": "IC50", "setting": "[1]", "result": 1100, "unit": "nM"}
    ]},
    {"compound": "Cc1ccsc1-c1nc(O)c(O)c(C(=O)O)n1", "values": [
      {"measurement": "IC50", "setting": "[1]", "result": 1400, "unit": "nM"}
    ]},
    {"compound": "Cc1nc(C(=O)O)c(O)c(=O)[nH]1", "values": [
      {"measurement": "IC50", "setting": "[1]", "result": 2100, "unit": "nM"}
    ]},
    {"compound": "COC(=O)c1nc(-c2ccc(F)cc2)[nH]c(=O)c1O", "values": [
      {"measurement": "IC50", "setting": "[1]", "result": 860, "unit": "nM"}
    ]},
    {"compound": "O=C(O)c1nc(Cc2ccsc2)[nH]c(=O)c1O", "values": [
      {"measurement": "IC50", "setting": "[1]", "result": 2400, "unit": "nM"}
    ]},
    {"compound": "COC(=O)c1nc(Cc2ccc(Cl)c(Cl)c2)[nH]c(=O)c1O", "values": [
      {"measurement": "permeability", "setting": "[9]", "result": "3.1 10^-6 cm/s"},
      {"measurement": "IC50", "setting": "[1]", "result": 2100, "unit": "nM"}
    ]},
    {"compound": "Cc1ccc(Cc2nc(C(=O)O)c(O)c(=O)[nH]2)cc1", "values": [
      {"measurement": "permeability", "setting": "[9]", "result": "0.07 10^-6 cm/s"},
      {"measurement": "IC50", "setting": "[1]", "result": 920, "unit": "nM"}
    ]},
    {"compound": "COC(=O)c1nc(Cc2ccc(Cl)cc2Cl)[nH]c(=O)c1O", "values": [
      {"measurement": "IC50", "setting": "[1]", "result": 5700, "unit": "nM"}
    ]},
    {"compound": "O=C(O)c1nc(-c2ccc(F)cc2)[nH]c(=O)c1O", "values": [
      {"measurement": "IC50", "setting": "[1]", "result": 540, "unit": "nM"}
    ]},
    {"compound": "COC(=O)c1nc(-c2ccco2)[nH]c(=O)c1O", "values": [
      {"measurement": "IC50", "setting": "[1]", "result": 3000, "unit": "nM"}
    ]},
    {"compound": "Cc1nc(C(=O)NCc2ccc(Cl)c(Cl)c2)c(O)c(=O)[nH]1", "values": [
      {"measurement": "IC50", "setting": "[1]", "result": 2800, "unit": "nM"}
    ]},
    {"compound": "O=C(O)c1nc(-c2ccc(-c3ccccc3)cc2)[nH]c(=O)c1O", "values": [
      {"measurement": "permeability", "setting": "[9]", "result": "0.06 10^-6 cm/s"},
      {"measurement": "IC50", "setting": "[1]", "result": 1500, "unit": "nM"}
    ]},
    {"compound": "O=C(NCc1ccc(F)c(F)c1)c1nc(-c2cccs2)[nH]c(=O)c1O", "values": [
      {"measurement": "IC50", "setting": "[1]", "result": 790, "unit": "nM"}
    ]},
    {"compound": "O=C(O)c1nc(Cc2ccc(F)c(F)c2)[nH]c(=O)c1O", "values": [
      {"measurement": "IC50", "setting": "[1]", "result": 870, "unit": "nM"}
    ]},
    {"compound": "O=C(NCc1ccc(C(F)(F)F)cc1)c1nc(-c2cccs2)[nH]c(=O)c1O", "values": [
      {"measurement": "IC50", "setting": "[1]", "result": 3000, "unit": "nM"}
    ]},
    {"compound": "O=C(O)c1nc(Cc2ccc(Cl)cc2Cl)[nH]c(=O)c1O", "values": [
      {"measurement": "IC50", "setting": "[1]", "result": 3800, "unit": "nM"}
    ]},
    {"compound": "O=C(O)c1nc(Cc2cccs2)[nH]c(=O)c1O", "values": [
      {"measurement": "IC50", "setting": "[1]", "result": 1700, "unit": "nM"}
    ]},
    {"compound": "COC(=O)c1nc(Cc2ccc(F)cc2F)[nH]c(=O)c1O", "values": [
      {"measurement": "IC50", "setting": "[1]", "result": 760, "unit": "nM"}
    ]},
    {"compound": "COC(=O)c1nc(-c2ccc(-c3ccccc3)cc2)[nH]c(=O)c1O", "values": [
      {"measurement": "IC50", "setting": "[1]", "result": 780, "unit": "nM"}
    ]},
    {"compound": "COc1ccc(CNC(=O)c2nc(C)[nH]c(=O)c2O)cc1", "values": [
      {"measurement": "permeability", "setting": "[9]", "result": "12.4 10^-6 cm/s"},
      {"measurement": "IC50", "setting": "[1]", "result": 590, "unit": "nM"}
    ]},
    {"compound": "O=C(O)c1nc(Cc2ccc(F)cc2F)[nH]c(=O)c1O", "values": [
      {"measurement": "IC50", "setting": "[1]", "result": 1400, "unit": "nM"}
    ]},
    {"compound": "O=C(O)c1nc(Cc2ccc(Cl)c(Cl)c2)nc(O)c1O", "values": [
      {"measurement": "solubility thermodynamic at 72 h", "setting": "[2]", "result": "≥ 3170", "unit": "µM"},
      {"measurement": "permeability", "setting": "[9]", "result": "0.05 10^-6 cm/s"},
      {"measurement": "remaining at 6 h", "setting": "[3]", "result": "> 94", "unit": "%"},
      {"measurement": "remaining at 6 h", "setting": "[4]", "result": "> 94", "unit": "%"},
      {"measurement": "IC50", "setting": "[1]", "result": 670, "unit": "nM"},
      {"measurement": "t1/2", "setting": "[5]", "result": "> 24", "unit": "h"},
      {"measurement": "t1/2", "setting": "[6]", "result": "> 24", "unit": "h"},
      {"measurement": "t1/2", "setting": "[7]", "result": "> 120", "unit": "h"},
      {"measurement": "t1/2", "setting": "[8]", "result": "> 120", "unit": "h"}
    ]}
  ]
}
